Test results from patent publication US5753617A, “Peptide inhibitors of cellular adhesion” (Centocor, Inc., priority 1995, dated 1998).
pIC50: −log10 of the molar value. Like-named read-outs stand apart in the source and are kept apart here. Where a SMILES comes first, the peptide text is derived from it. Bridges are numbered along the chain shown (N, C = ends). [ ]: non-standard residue; d: D form.

Legend:
P-selectin = molecular target: T1, P-selectin (Homo sapiens, UniProt P16109); experiment: Inhibition of human neutrophil adhesion to purified P-selectin immobilized on plastic wells; format: cell-based; conditions: inhibiting the binding of human neutrophils to P-selectin
T1 construct: P-selectin is isolated from human platelet lysates; from tissue; host or cells: human platelets (outdated platelet packs from a blood bank)
T1 sequence (P16109 42-830): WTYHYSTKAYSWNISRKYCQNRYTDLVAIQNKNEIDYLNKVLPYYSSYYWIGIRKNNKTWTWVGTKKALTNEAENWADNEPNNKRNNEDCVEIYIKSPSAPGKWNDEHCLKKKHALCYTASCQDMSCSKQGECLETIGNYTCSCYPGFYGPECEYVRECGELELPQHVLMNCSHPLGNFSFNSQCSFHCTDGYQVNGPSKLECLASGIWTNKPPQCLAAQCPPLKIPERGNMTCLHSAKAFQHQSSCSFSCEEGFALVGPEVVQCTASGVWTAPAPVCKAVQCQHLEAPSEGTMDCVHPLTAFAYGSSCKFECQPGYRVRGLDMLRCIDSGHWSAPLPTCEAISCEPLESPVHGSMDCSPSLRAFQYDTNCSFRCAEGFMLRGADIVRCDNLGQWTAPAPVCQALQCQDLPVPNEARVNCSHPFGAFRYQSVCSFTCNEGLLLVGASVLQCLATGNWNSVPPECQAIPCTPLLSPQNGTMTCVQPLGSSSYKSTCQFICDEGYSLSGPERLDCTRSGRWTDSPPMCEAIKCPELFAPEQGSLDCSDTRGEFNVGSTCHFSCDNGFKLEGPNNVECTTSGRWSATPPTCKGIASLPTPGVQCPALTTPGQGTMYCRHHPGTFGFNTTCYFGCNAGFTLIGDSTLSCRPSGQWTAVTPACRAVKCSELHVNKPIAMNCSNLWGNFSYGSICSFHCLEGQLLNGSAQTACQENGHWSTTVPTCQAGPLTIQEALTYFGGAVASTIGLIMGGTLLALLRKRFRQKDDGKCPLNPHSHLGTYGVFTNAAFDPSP
Procedure, shortened: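 Isolated human neutrophils (2×10^5 per well) in HBSS with Ca2+/Mg2+ and HSA added to wells coated overnight at 4° C with platelet-derived P-selectin (5 micrograms/mL), HSA-blocked; 20 min at 22° C. Nonadherent cells removed by inverted centrifugation at 150 g; adherent cells quantified by myeloperoxidase activity.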

[1] = disulfide bond, water

| pIC50 (P-selectin) | Structure (SMILES) | also measured |
| --- | --- | --- |
| 3.33 | CC[C@H](C)[C@H](NC(=O)[C@H](CCCCN)NC(=O)[C@@H](N)CCCNC(=N)N)C(=O)NCC(=O)NCC(=O)N[C@H]1CSSC[C@@H](C(N)=O)NC(=O)[C@H](Cc2c[nH]c3ccccc23)NC(=O)[C@H]([C@@H](C)O)NC(=O)[C@H](Cc2c[nH]c3ccccc23)NC1=O [(33)] (H-RKIGGCWTWC-NH2; disulfide 6-10) | ring closure, yield of all isomers ([1]; from CC[C@H](C)[C@H](NC(=O)[C@H](CCCCN)NC(=O)[C@@H](N)CCCNC(=N)N)C(=O)NCC(=O)NCC(=O)N[C@@H](CS)C(=O)N[C@@H](Cc1c[nH]c2ccccc12)C(=O)N[C@H](C(=O)N[C@@H](Cc1c[nH]c2ccccc12)C(=O)N[C@@H](CS)C(N)=O)[C@@H](C)O, DMSO, 0.7 mM, 25.0 °C, 16.0 h): 5.3% |
| 3.58 | CC(C)[C@@H](NC(=O)[C@@H](Cc1c[nH]c2ccccc12)NC(=O)[C@H](NC(=O)[C@@H](Cc1c[nH]c2ccccc12)NC(=O)[C@H]1CSSC[C@@H](NC(=O)[C@@H](CCCCN)NC(=O)[C@H](N)CCCNC(=N)N)C(=O)N[C@H](CCCNC(=N)N)C(=O)N[C@@H](Cc2ccccc2)C(=O)N1)[C@H](C)O)C(N)=O [(45)] (H-[dR][dK][dC][dR]F[dC][dW][dT][dW][dV]-NH2; disulfide 3-6) | ring closure, yield of all isomers ([1]; from CC(C)[C@@H](NC(=O)[C@@H](Cc1c[nH]c2ccccc12)NC(=O)[C@H](NC(=O)[C@@H](Cc1c[nH]c2ccccc12)NC(=O)[C@@H](CS)NC(=O)[C@H](Cc1ccccc1)NC(=O)[C@@H](CCCNC(=N)N)NC(=O)[C@@H](CS)NC(=O)[C@@H](CCCCN)NC(=O)[C@H](N)CCCNC(=N)N)[C@H](C)O)C(N)=O, DMSO, 0.357 mM, 25.0 °C, 48.0 h): 15.5% |
| 5.52 | CC(C)[C@H](NC(=O)[C@H](Cc1c[nH]c2ccccc12)NC(=O)[C@@H](NC(=O)[C@H](Cc1c[nH]c2ccccc12)NC(=O)[C@@H]1CSSC[C@H](NC(=O)[C@H](CCCCN)NC(=O)[C@@H](N)CCCNC(=N)N)C(=O)NCC(=O)NCC(=O)N1)[C@@H](C)O)C(N)=O [(9)] (H-RKCGGCWTWV-NH2; disulfide 3-6) | ring closure, yield of all isomers ([1]; from CC(C)[C@H](NC(=O)[C@H](Cc1c[nH]c2ccccc12)NC(=O)[C@@H](NC(=O)[C@H](Cc1c[nH]c2ccccc12)NC(=O)[C@H](CS)NC(=O)CNC(=O)CNC(=O)[C@H](CS)NC(=O)[C@H](CCCCN)NC(=O)[C@@H](N)CCCNC(=N)N)[C@@H](C)O)C(N)=O, DMSO, 0.456 mM, 16.0 h): 4.4% |
| 5.66 | CC(C)[C@@H](NC(=O)[C@@H](Cc1c[nH]c2ccccc12)NC(=O)[C@H](NC(=O)[C@@H](Cc1c[nH]c2ccccc12)NC(=O)[C@H]1CSSC[C@@H](NC(=O)[C@@H](CCCCN)NC(=O)[C@H](N)CCCNC(=N)N)C(=O)N[C@@H](Cc2c[nH]cn2)C(=O)N[C@@H](Cc2ccccc2)C(=O)N1)[C@H](C)O)C(N)=O [(94)] (H-[dR][dK][dC]HF[dC][dW][dT][dW][dV]-NH2; disulfide 3-6) | ring closure, yield of all isomers ([1]; from CC(C)[C@@H](NC(=O)[C@@H](Cc1c[nH]c2ccccc12)NC(=O)[C@H](NC(=O)[C@@H](Cc1c[nH]c2ccccc12)NC(=O)[C@@H](CS)NC(=O)[C@H](Cc1ccccc1)NC(=O)[C@H](Cc1c[nH]cn1)NC(=O)[C@@H](CS)NC(=O)[C@@H](CCCCN)NC(=O)[C@H](N)CCCNC(=N)N)[C@H](C)O)C(N)=O, DMSO, 0.714 mM): 10.7% |
| 4.51 | CC(C)[C@@H](NC(=O)[C@@H](Cc1c[nH]c2ccccc12)NC(=O)[C@H](NC(=O)[C@@H](Cc1c[nH]c2ccccc12)NC(=O)[C@H]1CSSC[C@@H](NC(=O)[C@@H](CCCCN)NC(=O)[C@H](N)CCCNC(=N)N)C(=O)N[C@@H](CCCNC(=N)N)C(=O)N[C@@H](Cc2ccccc2)C(=O)N1)[C@H](C)O)C(N)=O [(39)] (H-[dR][dK][dC]RF[dC][dW][dT][dW][dV]-NH2; disulfide 3-6) | ring closure, yield of all isomers ([1]; from CC(C)[C@@H](NC(=O)[C@@H](Cc1c[nH]c2ccccc12)NC(=O)[C@H](NC(=O)[C@@H](Cc1c[nH]c2ccccc12)NC(=O)[C@@H](CS)NC(=O)[C@H](Cc1ccccc1)NC(=O)[C@H](CCCNC(=N)N)NC(=O)[C@@H](CS)NC(=O)[C@@H](CCCCN)NC(=O)[C@H](N)CCCNC(=N)N)[C@H](C)O)C(N)=O, DMSO, 0.315 mM, 25.0 °C, 96.0 h): 12.2% |
| 3.98 | CC(C)[C@@H](NC(=O)[C@@H](Cc1c[nH]c2ccccc12)NC(=O)[C@H](NC(=O)[C@H]1CCCN1C(=O)[C@H]1CSSC[C@@H](NC(=O)[C@@H](CCCCN)NC(=O)[C@H](N)CCCNC(=N)N)C(=O)NCC(=O)N[C@@H](Cc2ccccc2)C(=O)N1)[C@H](C)O)C(N)=O [(76)] (H-[dR][dK][dC]GF[dC][dP][dT][dW][dV]-NH2; disulfide 3-6) | ring closure, yield of all isomers ([1]; from CC(C)[C@@H](NC(=O)[C@@H](Cc1c[nH]c2ccccc12)NC(=O)[C@H](NC(=O)[C@H]1CCCN1C(=O)[C@@H](CS)NC(=O)[C@H](Cc1ccccc1)NC(=O)CNC(=O)[C@@H](CS)NC(=O)[C@@H](CCCCN)NC(=O)[C@H](N)CCCNC(=N)N)[C@H](C)O)C(N)=O, DMSO, 0.14 mM, 192.0 h): 20.6% |
| 4.15 | CC(C)[C@@H](NC(=O)[C@@H](Cc1c[nH]c2ccccc12)NC(=O)[C@H](NC(=O)[C@@H](Cc1c[nH]c2ccccc12)NC(=O)[C@H]1CSSC[C@@H](NC(=O)[C@@H](CCCCN)NC(=O)[C@H](N)CCCNC(=N)N)C(=O)N2CCC[C@@H]2C(=O)N[C@@H](Cc2ccccc2)C(=O)N1)[C@H](C)O)C(N)=O [(57)] (H-[dR][dK][dC][dP]F[dC][dW][dT][dW][dV]-NH2; disulfide 3-6) | ring closure, yield of all isomers ([1]; from CC(C)[C@@H](NC(=O)[C@@H](Cc1c[nH]c2ccccc12)NC(=O)[C@H](NC(=O)[C@@H](Cc1c[nH]c2ccccc12)NC(=O)[C@@H](CS)NC(=O)[C@H](Cc1ccccc1)NC(=O)[C@H]1CCCN1C(=O)[C@@H](CS)NC(=O)[C@@H](CCCCN)NC(=O)[C@H](N)CCCNC(=N)N)[C@H](C)O)C(N)=O, air, Cu wire, NH4OH, 0.42 mM, 25.0 °C, 6.0 h): 8.7% |
| 5.43 | CC[C@H](C)[C@@H]1NC(=O)CNC(=O)[C@H](NC(=O)[C@@H](CCCCN)NC(=O)[C@H](N)CCCNC(=N)N)CSSC[C@H](C(=O)N[C@H](Cc2c[nH]c3ccccc23)C(=O)N[C@@H](C(=O)N[C@H](Cc2c[nH]c3ccccc23)C(=O)N[C@@H](C(N)=O)C(C)C)[C@H](C)O)NC1=O [(68)] (H-[dR][dK][dC]GI[dC][dW][dT][dW][dV]-NH2; disulfide 3-6) | ring closure, yield of all isomers ([1]; from CC[C@H](C)[C@H](NC(=O)CNC(=O)[C@@H](CS)NC(=O)[C@@H](CCCCN)NC(=O)[C@H](N)CCCNC(=N)N)C(=O)N[C@H](CS)C(=O)N[C@H](Cc1c[nH]c2ccccc12)C(=O)N[C@@H](C(=O)N[C@H](Cc1c[nH]c2ccccc12)C(=O)N[C@@H](C(N)=O)C(C)C)[C@H](C)O, Cu wire, NH4OH, 3.2 mM, 20.0 h): 2.8% |
